Test results published in patent US12577217B2, “15-PGDH inhibitor” (KYORIN Pharmaceutical Co., Ltd., priority 2019, dated 2026).
pIC50: −log10 of the molar value.

Target: T1, recombinant human 15-PGDH (Homo sapiens, UniProt P15428)
T1 construct: purchased R&D Systems
T1 sequence (P15428 1-266): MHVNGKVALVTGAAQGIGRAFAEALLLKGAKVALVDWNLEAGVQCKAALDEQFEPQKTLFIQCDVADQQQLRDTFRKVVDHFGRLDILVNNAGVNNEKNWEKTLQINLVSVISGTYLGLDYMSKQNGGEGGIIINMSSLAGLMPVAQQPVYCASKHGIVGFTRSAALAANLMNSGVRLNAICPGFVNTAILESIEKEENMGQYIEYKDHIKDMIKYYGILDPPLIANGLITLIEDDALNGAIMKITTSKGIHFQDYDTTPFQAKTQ
Assay: 15-PGDH enzyme inhibition test
Format: biochemical
Settings: 4 nM recombinant human 15-PGDH, 30 μM PGE2, 1 mM NAD+, 60 minutes after starting the reaction; read-out: IC50 Value
Procedure, shortened: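 Fluorescence (excitation 340 nm, emission 440 nm) measured 60 min after adding 1 mM NAD+ and 30 μM PGE2 to 4 nM recombinant human 15-PGDH, which had stood 12 min at room temperature with compound in pH 8.0 Tris-HCl buffer. Concentration-response curves yield IC50, binned into potency categories.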

Structure (SMILES)	pIC50
Cn1nc2cc(N3CCOc4cc(C(=O)NCCCCO)cnc43)ccn2c1=O [Example 8-176]	7.00 to 8.00
CN(CCCCO)C(=O)c1cnc2c(c1)OCCN2c1ccn2c(=O)n(C)nc2c1 [Example 8-177]	< 7.00
CCC(O)CNC(=O)c1cnc2c(c1)OCCN2c1ccn2c(=O)n(C)nc2c1 (centres unmarked) [Example 8-178]	< 7.00
CCN(CC(C)O)C(=O)c1cnc2c(c1)OCCN2c1ccn2c(=O)n(C)nc2c1 (centres unmarked) [Example 8-179]	7.00 to 8.00
CC(O)CCNC(=O)c1cnc2c(c1)OCCN2c1ccn2c(=O)n(C)nc2c1 (centres unmarked) [Example 8-180]	7.00 to 8.00
CC(O)CCN(C)C(=O)c1cnc2c(c1)OCCN2c1ccn2c(=O)n(C)nc2c1 (centres unmarked) [Example 8-181]	7.00 to 8.00
CN(CC(C)(C)O)C(=O)c1cnc2c(c1)OCCN2c1ccn2c(=O)n(C)nc2c1 [Example 8-182]	7.00 to 8.00
Cn1nc2cc(N3CCOc4cc(C(=O)N5CCC(C#N)CC5)cnc43)ccn2c1=O [Example 8-183]	7.00 to 8.00
CN1Cc2cc(N3CCOc4cc(C(=O)N5CCC5)cnc43)ccc2C1=O [Example 8-184]	> 8.00
CN1Cc2cc(N3CCOc4cc(C(=O)N5CCCC5)cnc43)ccc2C1=O [Example 8-185]	> 8.00
CN1Cc2cc(N3CCOc4cc(C(=O)N5CCCCCC5)cnc43)ccc2C1=O [Example 8-186]	> 8.00
CN1Cc2cc(N3CCOc4cc(C(=O)N5CCCCCCC5)cnc43)ccc2C1=O [Example 8-187]	> 8.00
CN1Cc2cc(N3CCOc4cc(C(=O)N5CCOCC5)cnc43)ccc2C1=O [Example 8-188]	> 8.00
CN1CCN(C(=O)c2cnc3c(c2)OCCN3c2ccc3c(c2)CN(C)C3=O)CC1 [Example 8-189]	> 8.00
CC(=O)N1CCN(C(=O)c2cnc3c(c2)OCCN3c2ccc3c(c2)CN(C)C3=O)CC1 [Example 8-190]	< 7.00
CN1Cc2cc(N3CCOc4cc(C(=O)N5CC=CCC5)cnc43)ccc2C1=O [Example 8-191]	> 8.00

Structure (SMILES)	pIC50
CN1Cc2cc(N3CCOc4cc(C(=O)N5CCc6ccccc6C5)cnc43)ccc2C1=O [Example 8-192]	> 8.00
CN1Cc2cc(N3CCOc4cc(C(=O)N5Cc6ccccc6C5)cnc43)ccc2C1=O [Example 8-193]	> 8.00
CC1CCN(C(=O)c2cnc3c(c2)OCCN3c2ccc3c(c2)CN(C)C3=O)CC1 [Example 8-194]	> 8.00
C[C@@H]1CCCCN1C(=O)c1cnc2c(c1)OCCN2c1ccc2c(c1)CN(C)C2=O [Example 8-195]	> 8.00
C[C@H]1CCCCN1C(=O)c1cnc2c(c1)OCCN2c1ccc2c(c1)CN(C)C2=O [Example 8-196]	> 8.00
C[C@@H]1CCCN(C(=O)c2cnc3c(c2)OCCN3c2ccc3c(c2)CN(C)C3=O)C1 [Example 8-197]	> 8.00
C[C@H]1CCCN(C(=O)c2cnc3c(c2)OCCN3c2ccc3c(c2)CN(C)C3=O)C1 [Example 8-198]	> 8.00
CN1Cc2cc(N3CCOc4cc(C(=O)N5CCC[C@@H](F)C5)cnc43)ccc2C1=O [Example 8-199]	> 8.00
CN1Cc2cc(N3CCOc4cc(C(=O)N5CCC[C@H](F)C5)cnc43)ccc2C1=O [Example 8-200]	> 8.00
CN1Cc2cc(N3CCOc4cc(C(=O)N5CCCC(F)(F)C5)cnc43)ccc2C1=O [Example 8-201]	> 8.00
CN1Cc2cc(N3CCOc4cc(C(=O)N5CCC(F)CC5)cnc43)ccc2C1=O [Example 8-202]	> 8.00
CN1Cc2cc(N3CCOc4cc(C(=O)N5CCC[C@@H](CF)C5)cnc43)ccc2C1=O [Example 8-203]	> 8.00
CN1Cc2cc(N3CCOc4cc(C(=O)N5CCC[C@H](CF)C5)cnc43)ccc2C1=O [Example 8-204]	> 8.00
CN1Cc2cc(N3CCOc4cc(C(=O)N5CCC[C@@H](C(F)F)C5)cnc43)ccc2C1=O [Example 8-205]	> 8.00
CN1Cc2cc(N3CCOc4cc(C(=O)N5CCC[C@H](C(F)F)C5)cnc43)ccc2C1=O [Example 8-206]	> 8.00
CN1Cc2cc(N3CCOc4cc(C(=O)N5CCC[C@@H](C(F)(F)F)C5)cnc43)ccc2C1=O [Example 8-207]	> 8.00
